# Results: US10973925B2, “Methods and compositions for theranostic nanoparticles” (University of Central Florida Research Foundation, Inc., priority 2015, dated 2021)
# “Also recorded” adds a separate entry of the source. Residues, ends and D or L forms follow the SMILES beside them.
# Experiments:
# [1] = tested on: PSMA positive LNCaP cells; conditions: LNCaP cell viability
# Description: The amount of encapsulated abiraterone was estimated following a reported protocol and defined as encapsulation efficiency.
# cancer cells [2] = test: CT20p activities in cancer cells (timeline); type: cell-based
# Experimental: FIGS. 18A-18J illustrate a timeline of CT20p activities in cancer cells. […] Gates are N, necrotic; V, viable; A, apoptotic. Percentages are V (black) and N+A (red). FIG. 18E is a graph showing that by 6 hours, cells detach from the substrate (fibronectin). Such cell detachment was measured using a crystal violet adhesion assay.
# (§1) Recently, a mitotoxic peptide that kills cancer cells was discovered. […] Cell death (anoikis), indicated by membrane asymmetry, was detectable in cancer cells by 48 hours (FIG. 18J). […] These findings indicate that CT20p impairs cancer cell invasiveness through its actions on mitochondria and the cytoskeleton, which causes detachment-induced cell death.
# PSMA(+) PC3 tumors = conditions: two week experiment (FIG. 22D)
# Experimental: FIG. 22A depicts an image of mice that were injected subcutaneously (SC) with PSMA(+) (right flank) or PSMA(−) (left flank) PCa tumor cells. Upon tumor detection (˜2 weeks), the mice were injected intravenously (IV) with PEG-(FOL)-HBPE-NPs (2 mg/kg/dose) containing a near IR dye (FIG. 22A) or CT20p (FIG. 22B). Mice were imaged after 24 hours (FIG. 22A) or sacrificed after 10 days (FIG. 22B). […] FIG. 22D is a graph that summarizes a two week experiment in which mice (n=5) bearing PSMA+ tumors (SC) were IV injected once per week with FOL-HBPE-NPs (2 mg/kg/dose) that were empty or had CT20p and were compared to COOH-NPs (untargeted) with CT20p or FOL-targeted doxorubicin (DOX). *p<0.05. The mice were euthanized before the tumors ulcerated.
# cancer cells [3] = conditions: expression or introduction of CT20p in cancer cells; cited from earlier work
# normal cells = test: CT20p in normal cells / control epithelial cell line; type: cell-based
# Experimental: as §1
# cells = conditions: cited from earlier work
# [4] = tested on: PSMA-expressing PCa cells; test: Effects of CT20p upon cell adhesion and anoikis; type: cell-based
# Experimental: An essential activity that promotes the invasiveness of metastatic cells is rearrangement of the cytoskeleton, which can be linked to integrin signaling. […] At selected time points, PCa cells (Table 1) as well as control cells were treated with Mitotracker Red to visualize mitochondria and then were fixed on coverslips for staining with Alexa Fluor™ 647 phalloidin, a high-affinity F-actin probe, or Deoxyribonuclease I, Alexa Fluor™ 488-conjugate for G-actin for imaging by confocal microscopy (Zeiss 710). To examine how integrin signaling was impaired by CT20p, the surface expression of integrins detected with fluorescence-conjugated antibodies (β1, CD29 and αVβ3, CD51/61) by flow cytometry, was examined. Levels of additional integrins (αV or α5) were also evaluated by immunoblotting cell lysates. To determine whether cell detachment and the reduction in integrin levels could activate anoikis, the CytoSelect® 96-well Anoikis Assay Kit was used and standard assays of cell migration and invasion were performed. Additionally, to test the effects of CT20p under conditions of directed migration, the cells described above were treated with conditioned media from 3T3 cells, which contains chemotactic factors.
# [5] = tested on: PCa primary tumors and metastatic lesions
# Experimental: Results were compared with those obtained with free doxorubicin or folate-ss-doxorubicin. Again, the lead HBPE-NP preparations from Experiment 2 were used. Male SCID mice were used that are either intact or castrated and treated with testosterone (SC) or DHT pellet. SCID mice were injected SC with luciferase expressing LNCaP cells and, upon tumor growth, D-luciferin was injected prior to imaging (IVIS, Perkin Elmer). In all experiments, NPs without targeting ligand or without CT20p were used as controls. Mice were injected once every week, for 3-4 weeks, with control DFO-HBPE-NPs or PSMA-targeted DFO-HBPE(CT20p)-NPs. Tumor growth was monitored by measuring the tumor size using a caliper or by ultrasound as well as by bio-luminescence as described above. In addition, blood was collected for weekly PSA measurements (with a commercially available ELISA), using the value prior to therapy as a baseline. The tumors were followed for 6 weeks or until reaching 1.5 cm in size (whichever came first). At experimental endpoints, remaining tumor tissue, as well as liver, spleen, kidney, lungs and brain, were collected and examined by immunohistochemistry (using J591 to identify PSMA) and also qRT-PCR and quantitative Western Blot for PSMA levels in the tumor to correlates with response to the targeted therapy. […]
# macrophages (RAW cells) = test: Cell death of non-transformed cells (Sytox analysis); type: cell-based
# Experimental: FIGS. 21A-21J show dose- (FIGS. 21A, 21C) and time- (FIGS. 21D, 21F) dependent cytotoxicity assay of PCa cells treated with Folate.HBPE(Dil)-NPs. PCa Cells: LNCap (FIGS. 21A, 21D), PSMA(+) PC3 (FIGS. 21B, 21E) and PC3 (FIGS. 21C, 21F). […] V, viable; N, necrotic, A, apoptotic.
# To study any effect that folate-HBPE (CT20p)-NPs may have on non-transformed cells, macrophages (RAW cells) were incubated with the folate-HBPE(CT20p)-NPs and cell death was assessed.
# [6] = by 24 hours post-CT20p treatment
smiles,measurement,setting,value
C[C@]12CC[C@H](O)CC1=CC[C@@H]1[C@@H]2CC[C@]2(C)C(c3cccnc3)=CC[C@@H]12 [abiraterone],IC50,[1],2550 nM
CC[C@H](C)[C@H](NC(=O)[C@@H](NC(=O)[C@H](CC(C)C)NC(=O)[C@H](CO)NC(=O)[C@H](C)NC(=O)[C@@H](NC(=O)[C@H](CC(C)C)NC(=O)[C@@H](NC(=O)CNC(=O)[C@H](C)NC(=O)[C@@H](NC(=O)[C@H](Cc1ccccc1)NC(=O)[C@@H](NC(=O)[C@@H](NC(=O)[C@@H](NC(C)=O)C(C)C)[C@@H](C)O)[C@@H](C)CC)C(C)C)C(C)C)[C@@H](C)O)[C@@H](C)O)C(=O)N[C@@H](Cc1c[nH]c2ccccc12)C(=O)N[C@@H](CCCCN)C(=O)N[C@@H](CCCCN)C(=O)N[C@@H](CCSC)C(=O)NCC(N)=O [CT20p] (Ac-VTIFVAGVLTASLTIWKKMG-NH2),concentration range in which the peptide works,cancer cells [2],nanomolar range
same,ROS production,cancer cells [2]; [6],increased ROS production
same,autophagy,cancer cells [2]; [6],induction of autophagy
same,caspases,cancer cells [2]; [6],activation of caspases
same,mitochondrial membrane effect,cancer cells [2]; cancer cells,hyperpolarization of the mitochondrial membrane and fusion-like aggregation; also recorded: mitochondrial membranes hyperpolarize and fuse
same,β1 integrin surface level,cancer cells [2]; prior to cell detachment,decreased surface expression of β1 integrin; also recorded: membrane levels of β1 integrin decreased
same,co-localization of peptide with mitochondria,"cancer cells [2]; ˜3.4 nM CT20p in NPs, cancer cells",co-localization of the peptide (red) with mitochondria (green) was detected
same,efficacy in PSMA+ tumors,PSMA(+) PC3 tumors,more effective than drugs like Doxoyrubucin
same,"block of cell death by Bcl-2 overexpression, Bax deficiency or caspase inhibition",cancer cells [3],minimally blocked it
same,"mitochondrial localization, autophagosome formation or cell death",normal cells; control epithelial cell line,not observed
same,cell death,normal cells; normal cells (FIG. 19C),minimal cell death was detected
same,uptake by cells,cells,not taken up by cells
same,F-actin and integrin signaling,[4],loss of F-actin and reduced integrin signaling
COc1cccc2c1C(=O)c1c(O)c3c(c(O)c1C2=O)C[C@@](O)(C(=O)CO)C[C@@H]3O[C@H]1C[C@H](N)[C@H](O)[C@H](C)O1 [Doxorubicin],tumor regression,[5]; also castration and hormone signaling conditions,Tumor regression also occurs
same,off-target toxicity,"[5]; mouse, in vivo",off-target toxicity was observed
same,toxicity to macrophages,macrophages (RAW cells),death of macrophages was observed
